Test [1] concerns the target T1, αvβ3 receptor (αvβ3 from human A375 cells) (Homo sapiens, UniProt P05106+P06756).
T1 construct: αvβ3 from human A375 cells was purified analogously to a procedure which was described by Wong et al; endogenous in cells; host or cells: human A375 cells; the receptor was purified from the cells and used detergent-solubilised (n-octyl-glucopyranoside)
Description: αvβ3 binding test (echistatin displacement, WGA SPA beads). How it is done: αvβ3 from human A375 cells was purified analogously to a procedure which was described by Wong et al. (Molecular Pharmacology, 50, 529–537 (1996)). In each case, 10 μl of αvβ3 (5 ng) in TBS pH 7.6, 2 mM CaCl2, 1 mM MgCl2, 1% n-octyl-glucopyranoside (Sigma); 10 μl of test substance in TBS pH 7.6, 0.1% DMSO and 45 μl of TBS pH 7.6, 2 mM CaCl2, 1 mM MgCl2, 1 mM MnCl2 were incubated at room temperature for 1 h. In each case, 25 μl of WGA SPA beads (Amersham, 4 mg/ml) and 10 μl of echistatin ([…], Amersham, chloramine-T labelled) were then added. After 16 hours at room temperature, the samples were measured in a scintillation measuring apparatus (Wallac 1450).

The next test relates to B16F10. Description: Growth inhibition test (MTT), cytotoxic action on tumour cell lines. The test is classed as cell-based. The following applies: Mus musculus, B16-F10, 144 h, read-out: IC50 values of the cytotoxic action on tumour cell lines, B16F10. How it is done: (§1) The human large intestine cell lines SW 480 and HT29 (ATCC No. CCL 228 and HTB38), the human breast cell lines MDA-MB 231, MCF-7 and BT20 (ATCC No. HTB-, 26, 22 and 23) and the mouse melanoma cell line B16F 10 (CRL 6475) were grown to confluence in Roux dishes in RPMI 1640 medium with addition of 10% FCS. They were then trypsinized and taken up in RPMI plus 10% FCS to a cell count of 50,000 cells or, for B16F10, 20,000 cells per ml. 100 μl of cell suspension/well were added to a 96 microwell plate and incubated at 37° C. for 1 day in a CO2 incubator. A further 100 μl of RPMI medium and 1 μl of DMSO were then added with the test substances. The growth was checked after day 6. For this, 25 μl of MTT solution (3-(4,5-dimethylthiazol-2-yl)-2,5-diphenyltetrazolium bromide) was added to each well at a starting concentration of 5 mg/ml of H2O. The plate was incubated at 37° C. for 5 hours in a CO2 incubator. The medium was then aspirated and 100 μl of i-propanol/well were added. After shaking with 100 μl of H2O for 30 min, the extinction was measured at 595-nm using a Multiplate Reader (BIO-RAD 3550-UV).
(§2) The cytostatic action is indicated in Table 2 as an IC50 value, in each case for the individual cell lines.

A further test concerns BT20. The test is described as above. It is filed as cell-based. Particulars: Homo sapiens, BT-20, 144 h, read-out: IC50 values of the cytotoxic action on tumour cell lines, BT20. How it is done: as §1, §2
Another test relates to HT 29. Described as above. The following applies: Homo sapiens, HT-29, 144 h, read-out: IC50 values of the cytotoxic action on tumour cell lines, HT 29. The test is classed as cell-based. The protocol:
as §1, §2

For another test, the system named is MCF7. Described as above. The following applies: Homo sapiens, MCF7, 144 h, read-out: IC50 values of the cytotoxic action on tumour cell lines, MCF7. The test is classed as cell-based. The protocol:
as §1, §2

A further test has as its system MDA-MB 231. The test is described as above. The test is classed as cell-based. Particulars: Homo sapiens, MDA-MB-231, 144 h, read-out: IC50 values of the cytotoxic action on tumour cell lines, MDA-MB 231. How it is done: as §1, §2
The next test concerns SW480. The test is described as above. It is filed as cell-based. Particulars: Homo sapiens, SW480, 144 h, read-out: IC50 values of the cytotoxic action on tumour cell lines, SW480. How it is done:
as §1, §2

Test [2] relates to human breast cancer xenograft MX1. Description: In-vivo inhibition of tumour growth using a nude mouse model. On the set-up: species or system athymic nude mice (NMRI nu/nu strain). Particulars: subcutaneous MX1 xenograft in nude mice; 40 mg/kg given on day 1–3 and 14–16; T/C in percent. The text has this: In all in-vivo experiments for investigating the inhibition of tumour growth, athymic nude mice (NMRI nu/nu strain) were used. The tumour was developed by serial passage in nude mice. The human origin of the tumour was confirmed by isoenzymatic and immunohistochemical methods.
The tumour was implanted subcutaneously in both flanks of nu/nu nude mice 6 to 8 weeks old. The treatment was started, depending on the doubling time, as soon as the tumours had reached a diameter of 5–7 mm. The mice were assigned to the treatment group or the control group (5 mice per group having 8–10 assessable tumours) by randomization. The individual tumours of the control group all grew progressively.
The size of the tumours was measured in two dimensions by means of a slide gauge. The tumour volume, which correlated well with the cell count, was then used for all assessments. The volume was calculated according to the formula “length×breadth×breadth/2” ([a×b^2]/2, a and b represent two diameters arranged at right angles).
The values of the relative tumour volume (RTV) were calculated for each individual tumour by dividing the tumour size on day X with the tumour size on day 0 (at the time of randomization). […]
The inhibition of the increase of the tumour volume (tumour volume of the test group/control group, T/C, in percent) was the final measured value. […]

In test [3] the test system is hemopoietic stem cells (bone marrow cells). Description: CSF-induced proliferation of hemopoietic stem cells. It is filed as cell-based, mice. Particulars: Bone marrow cell, 168 h. The protocol: Bone marrow cells are flushed out of the femur of mice. 10^5 cells are incubated in McCoy 5A medium (0.3% agar) together with recombinant murine GM-CSF (Genzyme; parent cell colony formation) and the substances (10^−4 to 100 μg/ml) at 37° C. and 7% CO2. 7 days later, the colonies (<50 cells) and clusters (17–50 cells) are counted.

Where [4] appears, read: Mus musculus, read-out: IC50, CSF-induced proliferation of hemopoietic stem cells, mouse bone marrow cells, recombinant murine GM-CSF, 7 days, colony count.
Setting [5] is: αvβ3 purified from human A375 cells, labelled echistatin, read-out: IC50 values of the binding to the αvβ3 receptor.

The structures appear in SMILES notation. Like-named read-outs stand apart in the source and are kept apart here.

T1 sequence (P06756 31-889 limits assumed): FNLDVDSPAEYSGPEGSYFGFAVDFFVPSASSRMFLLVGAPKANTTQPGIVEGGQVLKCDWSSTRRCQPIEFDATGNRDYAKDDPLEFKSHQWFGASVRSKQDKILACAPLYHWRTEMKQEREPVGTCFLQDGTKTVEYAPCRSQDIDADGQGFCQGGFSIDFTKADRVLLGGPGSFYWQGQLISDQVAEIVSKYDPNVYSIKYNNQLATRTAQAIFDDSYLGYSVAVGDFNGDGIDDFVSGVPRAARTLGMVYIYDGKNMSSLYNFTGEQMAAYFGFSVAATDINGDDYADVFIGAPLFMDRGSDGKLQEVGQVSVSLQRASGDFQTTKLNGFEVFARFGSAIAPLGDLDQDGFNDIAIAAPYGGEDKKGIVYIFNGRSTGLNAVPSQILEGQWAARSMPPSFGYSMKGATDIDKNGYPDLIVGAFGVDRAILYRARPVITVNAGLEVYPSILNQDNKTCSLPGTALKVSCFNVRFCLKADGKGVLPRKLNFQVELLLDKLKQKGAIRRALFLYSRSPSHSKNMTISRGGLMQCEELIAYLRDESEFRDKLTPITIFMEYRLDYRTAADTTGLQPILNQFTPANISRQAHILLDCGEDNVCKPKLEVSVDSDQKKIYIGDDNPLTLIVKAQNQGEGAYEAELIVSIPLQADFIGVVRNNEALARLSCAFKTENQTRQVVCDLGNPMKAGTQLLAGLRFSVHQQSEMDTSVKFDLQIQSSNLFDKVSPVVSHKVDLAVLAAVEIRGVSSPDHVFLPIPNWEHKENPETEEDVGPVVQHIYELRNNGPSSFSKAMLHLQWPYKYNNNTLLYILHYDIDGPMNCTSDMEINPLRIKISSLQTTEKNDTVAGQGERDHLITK
T1 sequence (P06756 891-1048 partner limits assumed): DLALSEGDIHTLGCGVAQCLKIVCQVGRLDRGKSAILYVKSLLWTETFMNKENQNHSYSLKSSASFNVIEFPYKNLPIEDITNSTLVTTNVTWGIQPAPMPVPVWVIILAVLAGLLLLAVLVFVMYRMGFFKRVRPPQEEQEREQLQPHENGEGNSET
T1 sequence (P05106 27-788): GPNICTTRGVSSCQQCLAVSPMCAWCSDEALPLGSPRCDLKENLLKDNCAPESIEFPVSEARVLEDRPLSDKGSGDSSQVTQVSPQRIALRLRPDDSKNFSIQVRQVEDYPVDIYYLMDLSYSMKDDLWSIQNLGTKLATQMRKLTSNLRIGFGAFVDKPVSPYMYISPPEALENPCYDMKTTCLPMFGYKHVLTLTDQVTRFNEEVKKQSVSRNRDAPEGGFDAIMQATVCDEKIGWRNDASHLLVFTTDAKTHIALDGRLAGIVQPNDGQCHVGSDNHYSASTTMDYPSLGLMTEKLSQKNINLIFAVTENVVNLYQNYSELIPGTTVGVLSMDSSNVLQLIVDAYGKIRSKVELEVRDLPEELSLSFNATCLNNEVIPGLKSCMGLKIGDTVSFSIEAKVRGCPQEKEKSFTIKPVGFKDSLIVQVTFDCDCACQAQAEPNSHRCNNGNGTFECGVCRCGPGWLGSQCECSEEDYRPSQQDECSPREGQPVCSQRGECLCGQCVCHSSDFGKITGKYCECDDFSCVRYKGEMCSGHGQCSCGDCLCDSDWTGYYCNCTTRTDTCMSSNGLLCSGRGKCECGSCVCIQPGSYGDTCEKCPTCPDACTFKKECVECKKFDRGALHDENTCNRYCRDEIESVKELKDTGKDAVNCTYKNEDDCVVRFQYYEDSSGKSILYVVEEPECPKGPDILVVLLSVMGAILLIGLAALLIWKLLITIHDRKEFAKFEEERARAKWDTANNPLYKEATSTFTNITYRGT

As for `CC[C@@]1(OC(=O)[C@@H](NC(=O)[C@H](Cc2cnc[nH]2)NC(=S)Nc2cccc(C(CC(=O)O)NS(=O)(=O)c3ccc(-c4cccc(NC(=O)Nc5nc6ccccc6[nH]5)c4)cc3)c2)C(C)C)C(=O)OCc2c1cc1n(c2=O)Cc2cc3ccccc3nc2-1` (stereo partly shown) [Example 3.8], the IC50 turned out to be 25 nM in test [1]; 800 nM in the test on B16F10; 400 nM with BT20; 200 nM with HT 29; 200 nM in the test with MCF7; 200 nM in the test with MDA-MB 231. Moreover, the IC50 stood at 350 nM in the test with SW480 and 0.025 µg/mL in test [3] (setting [4]). For the same molecule, the “optimal T/C (tumour volume of the test group/control group)” value in test [2] was determined as 15.9.
In the case of `CCCNC(=O)Nc1cccc(S(=O)(=O)Nc2cccc(C(CC(=O)O)NC(=O)Nc3ccc(NC(=S)N[C@@H](Cc4c[nH]cn4)C(=O)N[C@H](C(=O)O[C@]4(CC)C(=O)OCc5c4cc4n(c5=O)Cc5cc6ccccc6nc5-4)C(C)C)cc3)c2)c1` (stereo partly shown) [Example 3.13], the IC50 in test [1] is 14 nM; in the test on B16F10, 200 nM; in the test on BT20, 150 nM; in the test on HT 29, 90 nM; in the test with MCF7, 100 nM; in the test on MDA-MB 231, 200 nM. For the same molecule, the IC50 in the test with SW480 was 200 nM; in test [3] (setting [4]), 0.04 µg/mL.
Take `CCCNC(=O)Nc1cccc(S(=O)(=O)Nc2cccc(C(CC(=O)O)NC(=O)CCCC(=O)NCC(=O)N[C@@H](CC(C)C)C(=O)O[C@]3(CC)C(=O)OCc4c3cc3n(c4=O)Cc4cc5ccccc5nc4-3)c2)c1` (stereo partly shown) [Example 3.20]: the IC50 in test [1] (setting [5]) worked out at 265 nM; in test [3] (setting [4]), 0.1 µg/mL.
The corresponding values for `CCCNC(=O)Nc1cccc(S(=O)(=O)Nc2cccc(C(CC(=O)O)NC(=O)CCCC(=O)N[C@@H](CC(C)C)C(=O)NCC(=O)N[C@@H](CC(C)C)C(=O)O[C@]3(CC)C(=O)OCc4c3cc3n(c4=O)Cc4cc5ccccc5nc4-3)c2)c1` (stereo partly shown) [Example 3.21] are 549 nM and 0.08 µg/mL.
In the case of `CC[C@@]1(O)C(=O)OCc2c1cc1n(c2=O)Cc2cc3ccccc3nc2-1` [Camptothecin, 20(S)-Camptothecin, reference compound], in [3] (mouse bone marrow cells, recombinant murine GM-CSF, 7 days, colony count, read-out: IC50, CSF-induced proliferation of hemopoietic stem cells), the IC50 is 0.0003 µg/mL.
As to `CCCNC(=O)Nc1cccc(S(=O)(=O)Nc2cccc(C(CC(=O)O)NC(=O)CCCC(=O)N3CCC[C@H]3C(=O)N[C@@H](CC(C)C)C(=O)NCC(=O)N[C@@H](CC(C)C)C(=O)O[C@]3(CC)C(=O)OCc4c3cc3n(c4=O)Cc4cc5ccccc5nc4-3)c2)c1` (stereo partly shown) [Example 3.23], the IC50 in test [1] stood at 355 nM; in [3] (setting [4]) it was 0.006 µg/mL.
Consider `CC[C@@]1(OC(=O)[C@@H](NC(=O)[C@H](Cc2c[nH]cn2)NC(=S)Nc2ccc(NC(=O)NC(CC(=O)O)c3cccc(NS(=O)(=O)c4cccc(NC(=N)N)c4)c3)cc2)C(C)C)C(=O)OCc2c1cc1n(c2=O)Cc2cc3ccccc3nc2-1` (stereo partly shown) [Example 3.5], for which the IC50 in test [1] came out at 36 nM; with B16F10, 900 nM; with BT20 it was 500 nM; with HT 29, 150 nM; with MCF7 it was 150 nM; with MDA-MB 231, 150 nM. For the same molecule, the IC50 amounted to 200 nM with SW480 and 0.02 µg/mL in test [3] (setting [4]).
On to `CCCNC(=O)Nc1cccc(S(=O)(=O)Nc2cccc(C(CC(=O)O)NC(=O)CCCC(=O)NCC(=O)N[C@@H](CC(C)C)C(=O)N[C@H](C(=O)O[C@]3(CC)C(=O)OCc4c3cc3n(c4=O)Cc4cc5ccccc5nc4-3)C(C)C)c2)c1` (stereo partly shown) [Example 3.22], for which the IC50 came out at 531 nM in test [1] (setting [5]) and 0.006 µg/mL in [3] (setting [4]).
With `CC[C@@]1(OC(=O)[C@@H](NC(=O)[C@H](Cc2c[nH]cn2)NC(=S)Nc2ccc(S(=O)(=O)NC(CC(=O)O)c3cccc(NS(=O)(=O)c4cccc(NC(=N)N)c4)c3)cc2)C(C)C)C(=O)OCc2c1cc1n(c2=O)Cc2cc3ccccc3nc2-1` (stereo partly shown) [Example 3.2], the IC50 in test [1] was determined as 45 nM; in the test with B16F10 it was 1000 nM; in the test with BT20, 200 nM; with HT 29, 200 nM; in the test on MCF7, 200 nM; with MDA-MB 231, 200 nM. In the test with SW480, the IC50 is 400 nM.
Regarding `CCCNC(=O)Nc1cccc(S(=O)(=O)Nc2cccc(C(CC(=O)O)NS(=O)(=O)c3ccc(NC(=S)N[C@@H](Cc4c[nH]cn4)C(=O)N[C@H](C(=O)O[C@]4(CC)C(=O)OCc5c4cc4n(c5=O)Cc5cc6ccccc6nc5-4)C(C)C)cc3)c2)c1` (stereo partly shown) [Example 3.12], the IC50 is 390 nM in test [1]; 250 nM in the test on B16F10; 150 nM with BT20; 150 nM in the test on HT 29; 100 nM in the test with MCF7; 150 nM in the test with MDA-MB 231. Besides, in the test on SW480, the IC50 amounted to 300 nM.
On to `CC[C@@]1(OC(=O)CCC(=O)NC(CC(=O)O)c2cccc(NS(=O)(=O)c3cccc(NC(=N)N)c3)c2)C(=O)OCc2c1cc1n(c2=O)Cc2cc3ccccc3nc2-1` (stereo partly shown) [Example 3.18], for which the IC50 in test [1] was 79 nM; in the test on B16F10 it was 1000 nM; with BT20, 900 nM; with HT 29 it was 180 nM; with MCF7, 600 nM; in the test on MDA-MB 231, 500 nM. The IC50 in the test on SW480 is 300 nM.

The record behind these values is patent publication US7220824B1, “Integrin-mediated drug targeting” (Bayer Aktiengesellschaft, priority 2000, dated 2007).
